Where “and” joins values, the source holds several entries; their conditions need not be identical. Identical values can stand only once. Values belong to the compound of their own block, whether it stands above or below them.
Key:
Format in all cases: cell-based
[1] = test system: MB-468; assay: Synergy of Hec1 inhibitor with cytotoxic drug (combination index, MTS)
Protocol: (§1) Synergy: GI50s for selected drugs were determined and used to calculate a concentration ratio for use synergy assays with Hec1 inhibitors. Cells were treated with drugs 24 hours after being seeded in appropriate seeding numbers into 96 well plates containing low glucose DME with 10% FBS. […] Cell viability was determined by MTS assay using a CellTiter 96® Aqueous non-radioactive cell proliferation assay system (Promega, Madison, Wis. 53711 USA) according to the manufacturer's instructions. Optical density was determined using a Bio-Tek 340 spectrophotometer (Bio-Tek, Winooski, Vt. 05404) and were then processed using Excel (Microsoft, Redmond, Wash. 98052-7329) and GraphPad Prism 5 linear regression software (GraphPad Software, La Jolla, Calif. 92037 USA) to determine concentration-response curves for calculating relative GI50s. Synergy was determined by calculating a combination index value using the formula CI (combination index)=(CA,X/ICx,A)+(CB,X/ICx,B), where CA,X and CB,X are the concentrations of drug A and drug B used in combination to achieve x % drug effect. ICx,A and ICx,B are the concentrations for single agents to achieve the same effect.
(§2) Hec1 inhibitor-responsive cancer cells used for screening were treated with a mixture of Hec1 inhibitor and select anti-cancer drug at appropriate concentration ratios and evaluated for cell viability.

[2] = test system: MB-231; assay: as above
Protocol: as §1, §2

[3] = test system: K562; assay: as above
Protocol: as §1, §2

[4] = test system: MDA-MB-468; assay: Drug sensitivity, MTS cell viability assay (GI50); settings: Homo sapiens, MDA-MB-468, 96 h
Protocol: (§3) Drug sensitivity: Cell lines were screened for drug sensitivity by treatment with specified drugs 24 hours after seeding in appropriate seeding numbers into 96 well plates containing low glucose DME with 10% FBS. The drug was added to the plate in triplicate wells, and the cells are incubated in drug treated medium for 96 hours before cell viability was determined by MTS assay using CellTiter 96® Aqueous non-radioactive cell proliferation assay system (Promega, Madison, Wis. 53711 USA). The MTS assay was performed according to the manufacturer's instructions. Optical density was measured using a Bio-Tek 340 spectrophotometer (Bio-Tek, Winooski, Vt. 05404) and optical readings were then processed in Excel (Microsoft, Redmond, Wash. 98052-7329) and GraphPad Prism 5 linear regression software (GraphPad Software, La Jolla, Calif. 92037 USA) to determine concentration-response curves for calculating relative GI50s. […] The % growth inhibition of the test drug on cells were calculated as: [1−(Test Value)/(Control Value)]×100; these values were used to plot concentration-response curves, and then analyzed with linear regression software.

[5] = test system: K562; assay: Drug sensitivity, MTS cell viability assay (GI50)
Protocol: as §3

[6] = test system: Huh7; assay: Drug sensitivity, MTS cell viability assay (GI50); settings: Huh7, 96 hours, MTS
Protocol: as §3

[7] = test system: MDA-MB-231; assay: Drug sensitivity, MTS cell viability assay (GI50)
Protocol: as §3

[8] = test system: Hep3B; assay: Synergy of Hec1 inhibitor with cytotoxic drug (combination index, MTS); set-up: key to Combination Index: CI = (CA,X/ICx,A)+(CB,X/ICx,B) at x% drug effect
Protocol: as §1, §2

[9] = test system: Huh7; assay: as above; set-up: key to Combination Index: CI = (CA,X/ICx,A)+(CB,X/ICx,B) at x% drug effect
Protocol: as §1, §2

[10] = test system: K562R; assay: Drug sensitivity, MTS assay, drug resistant cell line; settings: Gleevec resistant myelogenous leukemia
Protocol: as §3

[11] = test system: NCI/ADR-RES; assay: as above; settings: multi-drug resistant uterine sarcoma
Protocol: as §3

[12] = test system: cyclin B1 and cyclin D1 in HeLa; assay: Cyclin B1 and cyclin D1 content by immunoblotting; settings: different time periods, immunoblot (FIG. 6C)
Protocol: Immunoblots: Cell lysates were by incubation of cells in radioimmunoprecipitation assay (RIPA) buffer (50 mM Tris-HCl, pH7.4, 150 mM NaCl, 1% NP40, 0.25% DOC, 0.1% SDS, 1 mM NaVO4, 1 mM EDTA, 1 ug/ml leupeptin, 1 μg/ml pepstatin) or 2.5× sample buffer (50 mM Tris-HCl, pH6.8, 1% SDS, 2.5% BME, 7.5% Glycerol, Bromophenol blue). Tissue samples were immersed in RIPA buffer, disrupted with a homogenizer, and centrifuged to clarify. Samples were then subjected to SDS-PAGE, blotted onto immunoblotting membranes, and incubated with primary antibodies in 3% BSA-TBST. Horseradish peroxidase—conjugated secondary antibodies were used for protein detection by enhanced chemiluminescence (Millipore, Billerica, Mass. 01821 USA). The following antibodies were used for Western blotting: anti-Rb monoclonal antibody 1F8 (Abcam, Cambridge, Mass. 02139-1517 USA); anti-p53 monoclonal antibody (Santa Cruz Biotechnology, Santa Cruz, Calif. 95060 USA); anti-β-actin monoclonal antibody AC-15 (Sigma Aldrich, St. Louis, Mo., USA).
To investigate this possibility, drug-responsive (HeLa, MDA-MB-468, HCT116) and resistant cells (A549) were synchronized by starvation and expression of Hec1 and Nek2 characterized at 1(G1), 27(G27), 32(G32), and 48(G48) hours. Differential expression patterns between Hec1 and Nek2 are apparent, indicating differences in regulation of Hec1/Nek2 pathways (FIG. 6A). […]

[13] = in combination with doxorubicin
[14] = in combination with Taxol (paclitaxel)
[15] = in combination with topotecan (187.20 nM), ratio used 3.74

- GI50 [4]: 33.6 nM
- GI50 ([5]; K562, 96 hours, listed as 110001): 40.6 nM and 43.8 nM
- GI50 ([6]; Homo sapiens, Huh-7, 96 h): 84.3 nM
- GI50 ([7]; Homo sapiens, MDA-MB-231, 96 h): 43.3 nM
- GI50 ([7]; MDA-MB-231, 96 hours, listed as 110001): 42.5 nM
- GI50 ([10]; Homo sapiens, K-562R): 29.6 nM
Compound: COc1ccc(Oc2cc(C)c(-c3csc(NC(=O)c4ccncc4)n3)c(C)c2)cc1 [compound 101001, N-(4-(4-(4-methoxyphenoxy)-2,6-dimethylphenyl)thiazol-2-yl)isonicotinamide]
- Synergy [1, 13]: Yes
- Synergy ([1]; in combination with topotecan): Yes
- Synergy ([2]; in combination with paclitaxel): Yes
- Synergy ([2]; in combination with topotecan): Yes
- Synergy [3, 13]: Yes
- Synergy ([3]; in combination with paclitaxel): Yes
- Synergy ([8]; in combination with sorafenib): Antagonistic
- Synergy ([9]; in combination with KXO1): Additive
- Synergy [9, 13]: Yes
- Synergy ([9]; in combination with paclitaxel): Yes
- Synergy ([9]; in combination with sorafenib): Antagonistic
- GI50 ([11]; Homo sapiens): 28.6 nM

- GI50 [4]: 21.1 nM
- GI50 ([5]; Homo sapiens, K562, 96 h): 28.2 nM
- GI50 ([6]; Homo sapiens, Huh-7, 96 h): 48.9 nM
- GI50 [6]: 35 nM
- GI50 ([7]; Homo sapiens, MDA-MB-231, 96 h): 16.5 nM
- GI50 [10]: 7.27 nM
- GI50 ([10]; Homo sapiens, K-562R): 10.4 nM
Compound: COCCOc1cnc(Sc2cc(C)c(-c3csc(NC(=O)c4ccncc4)n3)c(C)c2)cn1 [compound 110095, N-(4-(4-(5-(2-methoxyethoxy)pyrazin-2-ylthio)-2,6-dimethylphenyl)thiazol-2-yl)isonicotinamide]
- Combination Index ([1]; in combination with Taxol): 1.08
- Combination Index [1, 13]: 0.87
- Synergy [1, 13]: Yes
- Combination Index ([1]; in combination with topotecan): 0.88
- Synergy ([1]; in combination with topotecan): Yes
- Combination Index [2, 14]: 1.21
- Combination Index [2, 13]: 1.26
- Combination Index ([2]; in combination with topotecan): 0.71
- Synergy ([2]; in combination with topotecan): Yes
- Combination Index [3, 14]: 1.64
- Combination Index [3, 13]: 0.49
- Synergy [3, 13]: Yes
- Combination Index ([3]; in combination with topotecan): 1.38
- Combination Index ([8]; in combination with KX01): 2.79
- Combination Index ([8]; in combination with Taxol): 2.40
- Combination Index [8, 13]: 2.27
- Combination Index ([8]; in combination with sorafenib): 1.20
- Combination Index ([8]; in combination with topotecan): 1.48
- Combination Index ([9]; in combination with KX01 (KXO1)): 0.96
- Combination Index ([9]; in combination with KX01 (KXO1), listed as 0095): 1.36
- Synergy ([9]; in combination with KXO1): Additive
- Combination Index [9, 14]: 0.65
- Combination Index ([9]; in combination with Taxol (paclitaxel), listed as 0095): 1.05
- Combination Index [9, 13]: 0.76
- Synergy ([9]; in combination with paclitaxel): Yes
- Combination Index ([9]; in combination with sorafenib): 1.05
- Synergy ([9]; in combination with sorafenib): Additive
- Combination Index ([9]; in combination with sorafenib, listed as 0095): 0.96
- Combination Index ([9]; in combination with topotecan): 0.75
- Synergy ([9]; in combination with topotecan (50.91 nM)): Yes
- Combination Index [9, 15]: 0.76
- Synergy [9, 15]: Yes
- GI50 ([11]; Homo sapiens): 19.5 nM
- GI50 [11]: 10.4 nM
- Cyclin B1 and cyclin D1 levels [12]: down regulated
